Like-named read-outs stand apart in the source and are kept apart here.
Experiments:
pig's epidermis [1] = assay: Dermatological compatibility: transepidermal water loss (TEWL), gravimetric; conditions: […] by weight partial glyceride or glycerol ether in 17% by weight Plantapon PS 10, pH 5.5; skin treated 30 minutes at 40° C.; lower = better compatibility
Protocol: (§1) Dermatological compatibility was evaluated by determining the transepidermal water loss (TEWL) in a pig's epidermis. To this end, defined pieces of skin were treated with the various test solutions for 30 minutes at 40° C. and the TEWL value was gravimetrically determined. The test solutions were mixtures of 17% by weight Plantapon® PS 10 (sodium lauryl ether sulfate and Lauryl Glycoside, Cognis Dusseldorf) with 1.5% by weight fatty acid partial glycerides or glycerol ethers (see Table 1) in preservative-containing water (WAS 10% by weight). The pH was adjusted to 5.5 with citric acid.

pig's epidermis [2] = conditions: pH 5.5
Protocol: as §1

Row | TEWL [%-rel] = [treated/untreated * 100] − 100% (pig's epidermis [1]) [%-rel] | TEWL [%-rel] = [treated/untreated * 100] − 100% (pig's epidermis [2]) [%-rel] | Compound
1 | 5.0 |  | CCCCCCCCOCC(O)CO (centres unmarked) [Example 2, Glycerol monocapryl ether (>90)]
2 |  | 22.0 | Isostearic acid mono/diglyceride (65:35) [Example 7]
3 | 18.5 |  | Isostearic acid monoglyceride (>90) [Example 8]
4 |  | 20.5 | Lauric acid mono/diglyceride (65:35) [Example 9]
5 | 10.5 |  | CCCCCCCCCCCC(=O)OCC(O)CO (centres unmarked) [Example 10, Lauric acid monoglyceride (>90)]
